Source: patent US11447786B2, “Systems and methods for cellular reprogramming of a plant cell” (PIONEER HI-BRED INTERNATIONAL, INC., priority 2017, dated 2022)
“Also recorded” adds a separate entry of the source.

Columns and labels:
Type in all cases: cell-based, maize
ATCC40520 microspores [1] = experiment: Microspore embryogenesis in ATCC40520 microspore culture with hemin, MCS/ELS phenotype scoring; conditions: 1 μM hemin
Description: Following microspore isolation, ATCC40520 microspores (see U.S. Pat. No. 5,602,310 incorporated herein by reference in its entirety) were cultured in a petri dish in a 9% sucrose induction medium as a control or a 9% sucrose induction medium supplemented with a 1 μM final concentration of hemin (Sigma-Aldrich, catalog # H9039) at 28° C. under dark conditions.
(§1) Following microspore isolation, ATCC40520 microspores and EH, anelite inbred, that is known to be less responsive relative to the ATCC40520 genotype, were each individually cultured in a petri dish in a 9% sucrose induction medium as a control or a 9% sucrose induction medium supplemented with a 1 μM final concentration of hemin at 28° C. under dark conditions.
(§2) Microspore phenotypes were scored for each of ATCC40520 and EH after 21 days of treatment (+/− hemin). A multicellular structure (MCS) phenotype was scored when a unicellular-derived structure resulting from randomly oriented divisions within a surrounding, intact exine wall was observed. If the surrounding exine was ruptured and a release of cells was observed, then the response was scored as a proliferative embryo-like structure (ELS).

ATCC40520 microspores [2] = experiment: Gene expression analysis of embryo-like structures from control and hemin-treated ATCC40520 cultures; conditions: 1 μM hemin, 8 days in vitro culture, vs control
Description: Following microspore isolation, ATCC40520 microspores (see U.S. Pat. No. 5,602,310 incorporated herein by reference in its entirety) were cultured in a petri dish in a 9% sucrose induction medium as a control or a 9% sucrose induction medium supplemented with a 1 μM final concentration of hemin (Sigma-Aldrich, catalog # H9039) at 28° C. under dark conditions. After 8 days of in vitro tissue culture, four biological replicates of proliferating embryo-like structures were sampled from each of the control and the hemin-treated ATCC40520 tissue cultures for embryogenesis induction and processed for gene expression analysis using methods known in the art (data not shown).

inbred EH microspores [3] = experiment: Microspore embryogenesis in inbred EH microspore culture with hemin, MCS/ELS phenotype scoring; conditions: 1 μM hemin
Description: as §1, §2

isolated microspores [4] = experiment: Ex situ treatment of isolated microspores with GAMMA ZEIN-ZmWUS2-hexa histidine-tag protein; conditions: vs microspores cultured without the protein
Description: GAMMA ZEIN-ZmWUS2-hexa histidine-tag protein expression and purification is performed using a heterologous expression system expressing a plasmid encoding a GAMMA ZEIN-ZmWUS2-hexa histidine-tag (SEQ ID NO:46) sequence transformed into DH10Bac cells to generate baculoviruses. Baculovirus-infected SF9 insect cells are incubated for 72 hours at 27° C. The infected insect cells are harvested by centrifugation. Purification of the recombinant GAMMA ZEIN-ZmWUS2-hexa histidine-tag protein (SEQ ID NO:47) is performed as described in EXAMPLE 3.

inbred EH microspores [5] = experiment: Ex situ treatment of isolated microspores with purified ZmWUS2-hexa histidine-tag protein
Description: WUSCHEL protein expression and purification was performed using a heterologous expression system expressing a plasmid encoding a ZmWUS2-hexa histidine-tag (SEQ ID NO:1) sequence transformed into DH10Bac cells (Thermo Fisher Scientific catalog #10361012) to generate baculoviruses. Baculovirus-infected SF9 insect cells (Thermo Fisher Scientific catalog #12552014) were incubated for 72 hours at 27° C. The infected insect cells were harvested by centrifugation. Purification of the recombinant ZmWUS2-hexa histidine-tag protein (SEQ ID NO:2) was performed using commercially available protein purification methods Following microspore isolation from inbred EH, ZmWUS2-hexa histidine-tag protein treatments were performed for each culture by combining 505 μL of a 4% sucrose induction media, 37.5 μL of molecular grade bovine serum albumin (BSA; 20 mg/ml) (Sigma-Aldrich catalog # B8667) and 7.5 μL of protease inhibitor (Sigma-Aldrich catalog # P9599) and with 250 μL of the purified recombinant ZmWUS2-hexa histidine-tag protein. After gently mixing, the solution was filter sterilized within a sterile environment using a 0.2 μm filter (Pall Corporation catalog #4612). Optionally, an isolation medium was buffered with L-glutathione reduced (Sigma-Aldrich catalog #G4251). […]

[6] = system: microspores isolated from a F1 hybrid tassel of an EHxGR genetic cross; experiment: Protein transfection of microspores with ZmWUS2-hexa histidine-tag protein with or without Pro-Ject reagent
Description: Transfection reagent preparation using the cationic lipid based Pro-Ject™ transfection reagent (Thermo Fisher Scientific catalog #89850) was performed by adding 250 μL of methanol to the tube containing the dried transfection reagent, vortexing for 30 seconds at top speed, and dispensing 10 μL of Pro-ject™ plus methanol to 1.5 mL Eppendorf tubes. The transfection reagent was evaporated from the tubes within a chemical fume hood for 4 hours drying time at room temperature and the tubes were stored the tubes at −20° C. until use. Upon use, 100 μL of isolation medium containing 50 ng of the purified ZmWUS2-hexa histidine-tag protein was added to each tube and 900 μL microspore culture medium was dispensed into each transfection tube to re-hydrate the transfection reagent and encapsulate the protein. The 1 mL volume of this solution was combined with a 1 mL volume of microspores isolated from a F1 hybrid tassel of an EHxGR genetic cross. The microspores were suspended in isolation medium and each 2 mL volume was dispensed into a well of a 24 well microtiter plate (Lab Safety Supply catalog #11L794). The isolation medium was further supplemented with bovine serum albumin, protease inhibitor and L-glutathione reduced, with or without the cationic lipid-based Pro-Ject™ transfection reagent, and with or with the ZmWUS2-hexa histidine-tag protein treatments (ZmWUS2-hexa histidine-tag protein buffer as a control for comparison to the ZmWUS2-hexa histidine-tag protein). Each plate was sealed with parafilm and incubated at 28° C. under dark conditions. […] After 18 days, all cells were collected and rinsed using 70 μm Fisherbrand™ cell strainer and evaluated for the activation of cellular reprogramming and the induction of microspore embryogenesis. Microspore viability was scored by counting plasmolyzed, collapsed cells (i.e. “non-viable”) and translucent, spherical cells corresponding to the original state (i.e. “viable”).

isolated microspores [7] = experiment: Microspore electroporation with ZmWUS2-hexa histidine-tag protein; conditions: in combination with electroporation, vs no protein and no electroporation
Description: A Neon® Transfection System (Thermo Fisher Scientific catalog #MPK5000) and Neon® kit (Thermo Fisher Scientific catalog #MPK10025) is used per the manufacturer's instructions. The ex situ ZmWUS2-hexa histidine-tag protein treatment is prepared by mixing 12.5 μL of ZmWUS2-hexa histidine-tag protein (SEQ ID NO:2; 10 μg total, 0.8 μg/μL stock) with 12.5 μL Lipofectamin 3000 followed by 30 minutes incubation at room temperature. Sucrose is added to the resuspension buffer (buffer R) to a 0.4 M final concentration and filter sterilized. Isolated microspores are resuspended in a 2% (V/V) dimethyl sulfoxide (DMSO)/9% suscrose induction medium solution and incubated for 15 minutes at room temperatures, the microspores are pelleted, and the supernatant is removed. The microspores are washed three times with phosphate buffered saline (PBS; Gibco™ 10010023), resuspended in Electrolytic Buffer E (Thermo Fisher Scientific catalog #MPK5000) and mixed with the ZmWUS2-hexa histidine-tag protein/Lipofectamine 3000 solution followed by room temperature incubation for 10 minutes and then incubation on ice for 10 minutes. DMSO-mediated electroporation was used to increase ZmWUS2-hexa histidine-tag protein uptake into isolated microspores through multiple pulse conditions. […]

[8] = 21 days, vs control EH microspores

## hemin
ATCC40520 microspores [1]; 9% sucrose induction medium, 21 days, vs control
  cellular proliferation and development of embryo-like structures (ELS): increased cellular proliferation and the development of embryo-like structures (ELS)
ATCC40520 microspores [1]; 21 days
  quality of the embryo-like structures (proportion of spherical vs non-spherical embryoids): improved the quality of the embryo-like structures
ATCC40520 microspores [1]; after 21 days of treatment (+/- hemin)
  number of ELS in responsive cultures: approximately doubled
ATCC40520 microspores [2]
  expression of embryogenic transcripts: increased expression of embryogenic transcripts
  expression of pollen associated transcripts: decreased expression of pollen associated transcripts
Inbred EH microspores [3]; 21 days of culture, vs control
  cellular proliferation in responsive cultures: increased cellular proliferation
Inbred EH microspores [3]; [8]
  percentage of microspores scored with the ELS phenotype: increased
  percentage of microspores scored with the MCS phenotype: increased

B1: GAMMA ZEIN-ZmWUS2-hexa histidine-tag protein: Gamma-zein cell penetrating peptide WUSCHEL hexahistidine-tagged translational fusion protein (SEQ ID NO:47) (protein)
chain: VRLPPPVRLPPPLVRPPPLHHHHHHMAANAGGGGAGGGSGSGSVAAPAVCRPSGSRWTPTPEQIRMLKELYYGCGIRSPSSEQIQRITAMLRQHGKIEGKNVFYWFQNHKARERQKRRLTSLDVNVPAAGAADATTSQLGVLSLSSPPPSGAAPPSPTLGFYAAGNGGGSAVLLDTSSDWGSSGAAMATETCFLQDYMGVTDTGSSSQWPRFSSSDTIMAAAAARAATTRAPETLPLFPTCGDDGGSGSSSYLPFWGAASTTAGATSSVAIQQQHQLQEQYSFYSNSNSTQLAGTGNQDVSATAAAAAALELSLSSWCSPYPAAGSMGHHHHHH
modifications: WUS-HISTAG-GZCPP protein sequence
Isolated microspores [4]
  microspore responsiveness and embryogenesis induction: improved microspore responsiveness and embryogenesis induction

B2: ZmWUS2-hexa histidine-tag protein: Purified recombinant Zea mays WUSCHEL2 hexahistidine-tagged protein (SEQ ID NO:2) from baculovirus-infected SF9 insect cells (protein)
chain: MAANAGGGGAGGGSGSGSVAAPAVCRPSGSRWTPTPEQIRMLKELYYGCGIRSPSSEQIQRITAMLRQHGKIEGKNVFYWFQNHKARERQKRRLTSLDVNVPAAGAADATTSQLGVLSLSSPPPSGAAPPSPTLGFYAAGNGGGSAVLLDTSSDWGSSGAAMATETCFLQDYMGVTDTGSSSQWPRFSSSDTIMAAAAARAATTRAPETLPLFPTCGDDGGSGSSSYLPFWGAASTTAGATSSVAIQQQHQLQEQYSFYSNSNSTQLAGTGNQDVSATAAAAAALELSLSSWCSPYPAAGSMGHHHHHH
modifications: hexahistidine tag
Inbred EH microspores [5]; recalcitrant elite inbred, 4% sucrose induction media, vs culture without protein
  microspore responsiveness and embryogenesis induction: improved microspore responsiveness and embryogenesis induction
Inbred EH microspores [5]; wild type microspores treated with purified protein
  embryoid development (morphology): revealed a suspensor with root hairs; also recorded: A microspore-derived embryo with a developed radicle and root hairs was observed
[6]; 72 hours post-isolation, 4% sucrose liquid induction medium, on average
  improvement in cell viability: 5.1 fold
[6]; combined with cationic lipid-based Pro-Ject transfection reagent, 18 days
  cell proliferation / activation of cellular reprogramming and induction of microspore embryogenesis: cell proliferation was seen
[6]; without transfection reagent, vs control without protein
  cell viability after 18 days of culture: fewer cells were viable in the control treatment
Isolated microspores [7]
  microspore responsiveness and embryogenesis induction: improved microspore responsiveness and embryogenesis induction
